Our source for the mutagenic call values is PubChem BioAssay AID1259407 (Chemical Carcinogenesis Research Information System (CCRIS), 2018).

The source made the active and inactive calls. The rule behind the calls is not given here.

The series concerns CCRIS mutagenicity, Ames/micronucleus/aberration tests. Briefly: CCRIS mutagenicity studies.
Setting [1] is: Test System: AMES SALMONELLA TYPHIMURIUM, Strain/Indicator: TA100, Metabolic Activation: NONE, Method: STANDARD PLATE.
Where [2] appears, read: Test System: AMES SALMONELLA TYPHIMURIUM, Strain/Indicator: TA1535, Metabolic Activation: NONE, Method: STANDARD PLATE.
[3] abbreviates: Test System: AMES SALMONELLA TYPHIMURIUM, Strain/Indicator: TA1535, Metabolic Activation: RAT, LIVER, S-9, AROCLOR 1254, Method: STANDARD PLATE.

For the compound `Nc1ncn([C@@H]2O[C@H](CO)[C@@H](O)[C@H]2O)c(=O)n1`, the mutagenic call was “active; positive” (End Point: IN VITRO CHROMOSOMAL ABERRATIONS, Test System: CHO CELLS (K1), Metabolic Activation: NONE); “active; positive” (End Point: IN VITRO CHROMOSOMAL ABERRATIONS, Test System: CHO CELLS (XRS-5), Metabolic Activation: NONE); “active; positive” (Test System: AMES SALMONELLA TYPHIMURIUM, Strain/Indicator: TA92, Metabolic Activation: NONE, Method: STANDARD PLATE); “active; positive” (Test System: AMES SALMONELLA TYPHIMURIUM, Strain/Indicator: TA98, Metabolic Activation: NONE, Method: FLUCTUATION (MICROTITER)); “active; positive” under setting [1]; “active; positive” (Test System: AMES SALMONELLA TYPHIMURIUM, Strain/Indicator: TA102, Metabolic Activation: NONE, Method: STANDARD PLATE). Moreover, the mutagenic call reads like this: (Test System: AMES SALMONELLA TYPHIMURIUM, Strain/Indicator: TA104, Metabolic Activation: NONE, Method: STANDARD PLATE) “active; positive”; under setting [2], “active; positive”; under setting [3], “active; positive”; (Test System: AMES SALMONELLA TYPHIMURIUM, Strain/Indicator: TA1537, Metabolic Activation: NONE, Method: FLUCTUATION (MICROTITER)) “inactive; negative”; (Test System: AMES SALMONELLA TYPHIMURIUM, Strain/Indicator: TA2638, Metabolic Activation: NONE, Method: STANDARD PLATE) “active; positive”; (Test System: AMES SALMONELLA TYPHIMURIUM, Strain/Indicator: TA2640, Metabolic Activation: NONE, Method: STANDARD PLATE) “inactive; negative”. Further, the mutagenic call (Test System: AMES SALMONELLA TYPHIMURIUM, Strain/Indicator: TA7001, Metabolic Activation: NONE, Method: FLUCTUATION (MICROTITER)) was “inactive; negative”; the mutagenic call (Test System: AMES SALMONELLA TYPHIMURIUM, Strain/Indicator: TA7002, Metabolic Activation: NONE, Method: FLUCTUATION (MICROTITER)) is “inactive; negative”; the mutagenic call (Test System: AMES SALMONELLA TYPHIMURIUM, Strain/Indicator: TA7003, Metabolic Activation: NONE, Method: FLUCTUATION (MICROTITER)) is “inactive; negative”; the mutagenic call (Test System: AMES SALMONELLA TYPHIMURIUM, Strain/Indicator: TA7004, Metabolic Activation: NONE, Method: FLUCTUATION (MICROTITER)) is “active; positive”; the mutagenic call (Test System: AMES SALMONELLA TYPHIMURIUM, Strain/Indicator: TA7005, Metabolic Activation: NONE, Method: FLUCTUATION (MICROTITER)) was “inactive; negative”; the mutagenic call (Test System: AMES SALMONELLA TYPHIMURIUM, Strain/Indicator: TA7006, Metabolic Activation: NONE, Method: FLUCTUATION (MICROTITER)) was “active; positive”. The mutagenic call reads like this: (Test System: CHINESE HAMSTER OVARY, Strain/Indicator: CHO-AS52/6-THIOGUANINE, Metabolic Activation: NONE) “active; positive”; (Test System: MOUSE LYMPHOMA, Strain/Indicator: L5178Y (TK+/TK-), Metabolic Activation: RAT, LIVER, HEAT-DENATURED S-9, Method: SUSPENSION/PLATE) “active; positive”; (Test System: MOUSE LYMPHOMA, Strain/Indicator: L5178Y (TK+/TK-), Metabolic Activation: RAT, LIVER, S-9, AROCLOR 1254, Method: SUSPENSION/PLATE) “active; positive. reevaluation of results: inconclusive”; (Test System: MOUSE LYMPHOMA, Strain/Indicator: L5178Y (TK+/TK-), Metabolic Activation: RAT, LIVER, S-9, Method: SUSPENSION/PLATE) “active; positive”.

With `NCCCC[C@H](N[C@@H](CCc1ccccc1)C(=O)O)C(=O)N1CCC[C@H]1C(=O)O`, the mutagenic call is “inactive; negative” (Test System: AMES SALMONELLA TYPHIMURIUM, Strain/Indicator: TA98, Metabolic Activation: NONE, Method: STANDARD PLATE); “inactive; negative” (Test System: AMES SALMONELLA TYPHIMURIUM, Strain/Indicator: TA98, Metabolic Activation: RAT, LIVER, S-9, AROCLOR 1254, Method: STANDARD PLATE); “inactive; negative” under setting [1]; “inactive; negative” (Test System: AMES SALMONELLA TYPHIMURIUM, Strain/Indicator: TA100, Metabolic Activation: RAT, LIVER, S-9, AROCLOR 1254, Method: STANDARD PLATE); “inactive; negative” under setting [2]; “inactive; negative” under setting [3]. Besides, the mutagenic call reads like this: (Test System: AMES SALMONELLA TYPHIMURIUM, Strain/Indicator: TA1537, Metabolic Activation: NONE, Method: STANDARD PLATE) “inactive; negative”; (Test System: AMES SALMONELLA TYPHIMURIUM, Strain/Indicator: TA1537, Metabolic Activation: RAT, LIVER, S-9, AROCLOR 1254, Method: STANDARD PLATE) “inactive; negative”; (Test System: AMES SALMONELLA TYPHIMURIUM, Strain/Indicator: TA1538, Metabolic Activation: NONE, Method: STANDARD PLATE) “inactive; negative”; (Test System: AMES SALMONELLA TYPHIMURIUM, Strain/Indicator: TA1538, Metabolic Activation: RAT, LIVER, S-9, AROCLOR 1254, Method: STANDARD PLATE) “inactive; negative”; (Test System: E. COLI, Strain/Indicator: WP2, Metabolic Activation: NONE, Method: STANDARD PLATE) “inactive; negative”; (Test System: E. COLI, Strain/Indicator: WP2, Metabolic Activation: RAT, LIVER, S-9, AROCLOR 1254, Method: STANDARD PLATE) “inactive; negative”. The mutagenic call (Test System: E. COLI, Strain/Indicator: WP2 UVRA, Metabolic Activation: NONE, Method: STANDARD PLATE) is “inactive; negative” and the mutagenic call (Test System: E. COLI, Strain/Indicator: WP2 UVRA, Metabolic Activation: RAT, LIVER, S-9, AROCLOR 1254, Method: STANDARD PLATE) is “inactive; negative”.

In the case of `Cc1c(C(=O)O)c(O)cc2c1C(=O)c1c(O)c([C@@H]3O[C@@H](CO)[C@H](O)[C@@H](O)[C@H]3O)c(O)c(O)c1C2=O`, the mutagenic call (Test System: AMES SALMONELLA TYPHIMURIUM, Strain/Indicator: TA100, Method: PREINCUBATION) is “active; positive”.

In the case of `CC(=O)CC1CCC(=O)CCC(=O)OC(CC(C)=O)CCC(O)CCC(=O)O1` (centres undefined), the mutagenic call (Test System: CHINESE HAMSTER V-79, Strain/Indicator: V-79 (HPRT)/6-THIOGUANINE, Metabolic Activation: NONE) is “inactive; negative”.

Turning to `N[C@@H](Cc1cc(I)c(Oc2cc(I)c(O)c(I)c2)c(I)c1)C(=O)O`, the mutagenic call (End Point: In vitro micronucleus, Test System: Human peripheral blood lymphocytes, Metabolic Activation: None) was “inactive; negative”.

In the case of `CC(C)N(CC(O)COc1ccc(CC(N)=O)cc1)N=O` (centres undefined), the mutagenic call by setting is: (Test System: UDS HUMAN HEPATOCYTES, Strain/Indicator: THY INCORP, Metabolic Activation: NONE, Method: AUTORADIOGRAPHY) “active; positive”; (Test System: UDS RAT HEPATOCYTES, Strain/Indicator: THY INCORP, Metabolic Activation: NONE, Method: AUTORADIOGRAPHY) “active; positive”.

With `O=S(=O)(O)Oc1ccc2ccc3cc4ccccc4c4ccc1c2c34`, the mutagenic call was “active; positive” (Test System: AMES SALMONELLA TYPHIMURIUM, Strain/Indicator: TA98, Metabolic Activation: NONE, Method: PREINCUBATION); “active; positive” (Test System: AMES SALMONELLA TYPHIMURIUM, Strain/Indicator: TA98, Metabolic Activation: RAT, LIVER, S-9, AROCLOR 1254, Method: PREINCUBATION); “active; positive” (Test System: AMES SALMONELLA TYPHIMURIUM, Strain/Indicator: TA98, Metabolic Activation: RAT, LUNG, S-9, Method: PREINCUBATION).
